According to ChEMBL document CHEMBL1681668, “Discovery of INCB10820/PF-4178903, a potent, selective, and orally bioavailable dual CCR2 and CCR5 antagonist” (Bioorg Med Chem Lett, 2011):

What was measured:
[1] = target: C-C chemokine receptor type 5 (Homo sapiens, UniProt P51681); assay: Displacement of labeled MIP-1beta from human CCR5 receptor
[2] = target: C-C chemokine receptor type 2 (Homo sapiens) (UniProt P41597); assay: Displacement of [125I]MCP1 from human CCR2 at 1000 nM after 30 mins by gamma counting
Chain of C-C chemokine receptor type 2 (Homo sapiens) (P41597 whole entry, looked up): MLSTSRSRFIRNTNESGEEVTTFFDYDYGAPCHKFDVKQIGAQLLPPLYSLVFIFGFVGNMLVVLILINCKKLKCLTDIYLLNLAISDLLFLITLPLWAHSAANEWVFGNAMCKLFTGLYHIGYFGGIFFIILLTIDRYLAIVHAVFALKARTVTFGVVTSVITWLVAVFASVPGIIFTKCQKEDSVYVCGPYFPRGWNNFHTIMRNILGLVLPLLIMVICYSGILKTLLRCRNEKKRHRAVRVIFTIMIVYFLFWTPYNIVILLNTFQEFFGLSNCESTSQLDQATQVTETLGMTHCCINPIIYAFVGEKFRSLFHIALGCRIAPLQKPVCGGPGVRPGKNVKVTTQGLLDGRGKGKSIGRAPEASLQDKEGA

[3] = Half life in cynomolgus monkey at […], iv; assay type: ADME, organism-based, Macaca fascicularis; parameters: dose 2.5 mg/kg, route intravenous; conditions: in vivo
[4] = Half life in human liver microsomes; assay type: ADME, Microsome
[5] = Volume of distribution at steady state in cynomolgus monkey at […], iv and 10 mg/kg, po; assay type: ADME, organism-based, Macaca fascicularis; conditions: in vivo, read-out: Vdss
[6] = Oral bioavailability in cynomolgus monkey at 10 mg/kg; assay type: ADME, organism-based, Macaca fascicularis; conditions: in vivo
[7] = Clearance in rat at 5 mg/kg, iv and 10 mg/kg, po; assay type: ADME, organism-based; conditions: in vivo
[8] = AUC in rat at 10 mg/kg, po; assay type: ADME, organism-based; parameters: dose 10 mg/kg, route oral; conditions: plasma
[9] = Volume of distribution at steady state in rat at 5 mg/kg, iv and 10 mg/kg, po; assay type: ADME, organism-based; conditions: in vivo, read-out: Vdss
[10] = Clearance in cynomolgus monkey at […], iv and 10 mg/kg, po; assay type: ADME, organism-based, Macaca fascicularis; conditions: in vivo
[11] = Half life in rat at 5 mg/kg, iv; assay type: ADME, organism-based; parameters: dose 5 mg/kg, route intravenous; conditions: in vivo
[12] = AUC in cynomolgus monkey at 10 mg/kg, po; assay type: ADME, organism-based, Macaca fascicularis; parameters: dose 10 mg/kg, route oral; conditions: plasma
[13] = Oral bioavailability in rat at 10 mg/kg; assay type: ADME, organism-based; conditions: in vivo

Chain of C-C chemokine receptor type 5 (P51681 whole entry): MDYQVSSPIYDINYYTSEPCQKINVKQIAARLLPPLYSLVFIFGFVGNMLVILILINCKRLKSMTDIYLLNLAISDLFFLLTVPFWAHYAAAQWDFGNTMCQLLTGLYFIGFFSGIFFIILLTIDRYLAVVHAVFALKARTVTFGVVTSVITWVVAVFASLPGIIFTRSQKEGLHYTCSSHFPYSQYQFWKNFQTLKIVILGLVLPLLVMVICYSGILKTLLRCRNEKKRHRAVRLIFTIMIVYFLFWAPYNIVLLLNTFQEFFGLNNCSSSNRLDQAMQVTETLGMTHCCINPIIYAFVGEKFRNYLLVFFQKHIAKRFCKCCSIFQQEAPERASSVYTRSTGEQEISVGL

| SMILES | IC50 [1] [nM] | also measured |
| --- | --- | --- |
| CC(C)[C@]1(C(=O)N2CCN(c3cccc(C(F)(F)F)c3)CC2)CC[C@@H](N[C@H]2CCOC[C@@H]2C)C1 | 370 | – |
| CC[C@@H]1COCC[C@H]1N[C@@H]1CC[C@@](C(=O)N2CCN(c3cccc(C(F)(F)F)c3)CC2)(C(C)C)C1 | 1000 | – |
| CCO[C@H]1COCC[C@H]1N[C@@H]1CC[C@@](C(=O)N2CCN(c3cccc(C(F)(F)F)c3)CC2)(C(C)C)C1 | 206 | – |
| CC(C)[C@]1(C(=O)N2CCC(c3ccccc3)CC2)CC[C@@H](NC2CCOCC2)C1 | – | inhibition [2]: 0% |
| CC[C@H]1COCC[C@H]1N[C@@H]1CC[C@@](C(=O)N2CCN(c3cccc(C(F)(F)F)c3)CC2)(C(C)C)C1 | 312 | – |
| CO[C@H]1COCC[C@H]1N[C@@H]1CC[C@@](C(=O)N2CCN(c3cccc(C(F)(F)F)c3)CC2)(C(C)C)C1 | 204 | – |
| CC(C)[C@]1(C(=O)N2CCN(c3cccc(C(F)(F)F)c3)CC2)CC[C@@H](N[C@H]2CCOC[C@H]2C)C1 | 77 | – |
| CC(C)[C@]1(C(=O)N2CCN(c3ccc(C(F)(F)F)cc3)CC2)CC[C@@H](NC2CCOCC2)C1 | – | inhibition [2]: 40% |
| CC(C)[C@]1(C(=O)N2CCN(c3cccc(C(F)(F)F)c3)CC2)CC[C@@H](NC2CCOCC2)C1 | 283 | – |
| CC[C@@H]1COCC[C@@H]1N[C@@H]1CC[C@@](C(=O)N2CCN(c3cccc(C(F)(F)F)c3)CC2)(C(C)C)C1 | 18 | – |
| CC(C)[C@]1(C(=O)N2CCN(c3cccc(C(F)(F)F)c3)CC2)CC[C@@H](N[C@@H]2CCOC[C@@H]2C)C1 | 108 | – |
| CO[C@@H]1COCC[C@@H]1N[C@@H]1CC[C@](CC(F)(F)F)(C(=O)N2CCN(c3cc(C(F)(F)F)ccn3)CC2)C1 | 8.4 | – |
| CC[C@H]1COCC[C@@H]1N[C@@H]1CC[C@@](C(=O)N2CCN(c3cccc(C(F)(F)F)c3)CC2)(C(C)C)C1 | 546 | – |
| CO[C@@H]1COCC[C@@H]1N[C@@H]1CC[C@@](C(=O)N2CCN(c3cccc(C(F)(F)F)c3)CC2)(C(C)C)C1 | 23 | – |
| CO[C@@H]1COCC[C@@H]1N[C@@H]1CC[C@@](C(=O)N2CCN(c3cc(C(F)(F)F)ccn3)CC2)(C(C)C)C1 | – | half-life [3]: 3 h; half-life [4]: 1.55 h; Vd [5]: 6.2 L/kg; bioavailability [6]: 57%; clearance [7]: 63.3 mL/min/kg; AUC [8]: 3 µM·h; Vd [9]: 17 L/kg; clearance [10]: 36.7 mL/min/kg; half-life [11]: 5 h; AUC [12]: 5.3 µM·h; bioavailability [13]: 84% |
| CCO[C@@H]1COCC[C@@H]1N[C@@H]1CC[C@@](C(=O)N2CCN(c3cccc(C(F)(F)F)c3)CC2)(C(C)C)C1 | 22.5 | – |
| COC[C@@H]1COCC[C@@H]1N[C@@H]1CC[C@@](C(=O)N2CCN(c3cccc(C(F)(F)F)c3)CC2)(C(C)C)C1 | 201 | – |
| CO[C@@H]1COCC[C@@H]1N[C@@H]1CC[C@@](C(=O)N2CCN(c3cccc(C(F)(F)F)n3)CC2)(C(C)C)C1 | 26.5 | – |
| CC(C)[C@]1(C(=O)N2CCN(c3cccc(C(F)(F)F)c3)CC2)CC[C@@H](N[C@@H]2CCOC[C@H]2C)C1 | > 1000 | – |
| CC(C)[C@]1(C(=O)N2CCN(c3ccccc3C(F)(F)F)CC2)CC[C@@H](NC2CCOCC2)C1 | – | inhibition [2]: 19% |
| COC[C@H]1COCC[C@H]1N[C@@H]1CC[C@@](C(=O)N2CCN(c3cccc(C(F)(F)F)c3)CC2)(C(C)C)C1 | 572 | – |
